The values that follow come from paper PMC11528044 (Nature Communications, 2024).

The target of assay [1] is T1, LdCYP5122A1 (Leishmania donovani, UniProt A0A3S7X0B6).
T1 sequence (A0A3S7X0B6 61-592): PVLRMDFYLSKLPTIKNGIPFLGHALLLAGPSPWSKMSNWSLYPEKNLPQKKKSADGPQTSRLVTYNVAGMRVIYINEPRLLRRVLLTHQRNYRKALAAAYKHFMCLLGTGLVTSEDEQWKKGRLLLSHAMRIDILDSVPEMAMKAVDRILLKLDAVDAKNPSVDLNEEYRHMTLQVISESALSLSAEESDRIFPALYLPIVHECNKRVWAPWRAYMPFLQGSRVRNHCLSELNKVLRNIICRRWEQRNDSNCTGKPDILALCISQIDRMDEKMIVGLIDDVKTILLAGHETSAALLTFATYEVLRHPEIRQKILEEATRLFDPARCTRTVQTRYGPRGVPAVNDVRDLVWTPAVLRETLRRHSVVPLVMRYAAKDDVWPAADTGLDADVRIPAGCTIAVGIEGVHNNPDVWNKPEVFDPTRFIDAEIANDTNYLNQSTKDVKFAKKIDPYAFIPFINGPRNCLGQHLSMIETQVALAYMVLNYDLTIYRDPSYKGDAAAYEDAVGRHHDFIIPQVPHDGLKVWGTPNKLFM

Assay [2] concerns L. donovani strain 1S2D promastigotes (Ld1S WT and CYP5122A1 mutants). As to conditions: 48 hours; for EC50: read-out: EC50, promastigote growth.
In assay [3] the test system is intracellular amastigotes. As to conditions: ref Wang et al. (ref. 45); cited from earlier work.
In assay [4] the target is T2, LdCYP51 (Leishmania donovani, UniProt A0A3S7WRS7).
Assay [5] addresses T2, LdCYP51. Briefly: biochemical.
The target in assay [6] is T1, LdCYP5122A1. Briefly: biochemical. As to conditions: for inhibition at 100 µM: read-out: % inhibition of CYP5122A1 at 100 μM.
In assay [7] the test system is L. donovani LV82 promastigotes. Description: microbe, parasite or virus in culture. As to conditions: Leishmania donovani, 72 h, read-out: EC50 (L. donovani).
Assay [8] deals with intracellular amastigotes of L. infantum. As to conditions: cited from earlier work; for EC50: read-out: EC50, elimination of intracellular amastigotes of L. infantum.
Assay [9] concerns intracellular L. major and L. amazonensis. As to conditions: 10 μM; cited from earlier work.
The target of the next assay is T3, L. donovani CYP5122A1 (Leishmania donovani, UniProt A0A3S7X0B6).
T3 sequence (A0A3S7X0B6 61-592): T1 sequence (A0A3S7X0B6 61-592)
Briefly: UV-Vis difference binding spectra of ligands with purified recombinant CYP5122A1.

In assay [10] the test system is multiple strains of L. donovani and L. infantum promastigotes. As to conditions: 1 μg/mL; cited from earlier work.
A further assay has as its target L. donovani CYP51 (Leishmania donovani, UniProt A0A3S7WRS7). Description: UV-Vis difference binding spectra of ligands with purified recombinant CYP51.
Assay [11] concerns L. donovani strain 1S2D promastigotes (Ld1S WT and CYP5122A1 mutants). Description: microbe, parasite or virus in culture. As to conditions: Leishmania donovani, 48 h.
The subject of assay [12] is intracellular L. donovani parasites. Description: Intracellular L. donovani in infected peritoneal macrophage assay. It counts as cell-based, Leishmania donovani. As to conditions: Supplementary Fig. 12.
For assay [13], the system named is L. donovani LV82 promastigote cultures. Briefly: Microscopic counts of LV82 promastigote cultures. It counts as cell-based, Leishmania donovani. As to conditions: LV82 promastigotes, cell counts daily for three days.
Assay [14] deals with sterol profile of LV82 promastigotes. Briefly: LC-MS/MS sterol analysis of inhibitor-treated LV82 promastigotes. It counts as cell-based, Leishmania donovani. As to conditions: 50 μM voriconazole vs. DMSO, 24 hr.

Where two headings read alike, the source gives them in different places. Marks after values point to notes of the source that are not given here. Some results are limits rather than exact numbers.

Sequence of L. donovani CYP51 (A0A3S7WRS7 32-480): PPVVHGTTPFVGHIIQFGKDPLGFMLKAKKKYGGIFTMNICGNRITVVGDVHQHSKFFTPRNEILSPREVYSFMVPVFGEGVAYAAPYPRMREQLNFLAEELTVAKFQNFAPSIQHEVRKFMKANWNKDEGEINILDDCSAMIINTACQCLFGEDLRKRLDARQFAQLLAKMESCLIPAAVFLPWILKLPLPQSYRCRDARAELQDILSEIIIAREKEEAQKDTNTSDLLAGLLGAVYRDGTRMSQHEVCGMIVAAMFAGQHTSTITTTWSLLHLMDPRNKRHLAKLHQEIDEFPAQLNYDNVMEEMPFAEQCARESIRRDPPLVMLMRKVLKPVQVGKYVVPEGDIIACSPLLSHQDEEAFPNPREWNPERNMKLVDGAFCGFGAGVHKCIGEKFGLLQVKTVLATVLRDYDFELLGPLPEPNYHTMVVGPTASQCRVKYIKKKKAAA
T2 sequence (A0A3S7WRS7 32-480): as above

For `CC(C)Oc1cc(NC(=N)c2ccccn2)ccc1-c1ccc(-c2ccc(NC(=N)c3ccccn3)cc2OC(C)C)o1` [DB766], the “Selectivity for CYP5122A1 over CYP51” value at LdCYP5122A1 [1] is on record as over 30 fold. The IC50 at LdCYP5122A1 [1] (read-out: IC50 (LdCYP5122A1), mean ± standard deviation (n = 3)) is 1000 ± 100 nM. Also, the EC50 in assay [2] (CYP5122A1 overexpressors) was about 12 nM; in assay [2] (WT and Ld22A1 + /‒) it was 1 to 4 nM. Also, in [3], the “IC50 vs. intracellular amastigotes (printed in column EC50 (L. donovani))” value (from here on “IC50 vs. intracellular amastigotes”) was 0.036^f μM. Moreover, the “% inhibition of LdCYP51 at 30 μM” value at LdCYP51 [4] (30 μM) is under 30% inhibition at 30 μM.
With `Clc1ccc(C(Cn2ccnc2)OCc2ccc(Sc3ccccc3)cc2)c(Cl)c1` (centres unmarked) [Fenticonazole], the IC50 on LdCYP51 [5] came out at 81 ± 2 nM; against LdCYP5122A1 [6], 650 ± 80 nM. The EC50 in [7] is 5600 ± 300 nM; in assay [8] it was 2900 ± 300 nM. In addition, on LdCYP5122A1 [1], the “SI (selectivity index) = IC50 against LdCYP5122A1/IC50 against LdCYP51” value (“SI (selectivity index) = IC50” for short) is 8.0.
`OC(Cn1cncn1)(Cn1cncn1)c1ccc(F)cc1F` [Fluconazole]: at LdCYP5122A1 [6], the IC50 is over 100000 nM and the inhibition at 100 µM was under 20%. Besides, the “Inhibition of intracellular parasites” value in [9] was under 50%. The “Binding mode with CYP5122A1 (difference binding spectrum)” value at L. donovani CYP5122A1 is on record as “no specific responses”. In [10], the “Growth compared with control” value is recorded as over 80%. Besides, the “Binding mode with CYP51 (difference binding spectrum)” value at L. donovani CYP51 was “type II binding”.
`CCC(C)n1ncn(-c2ccc(N3CCN(c4ccc(OCC5COC(Cn6cncn6)(c6ccc(Cl)cc6Cl)O5)cc4)CC3)cc2)c1=O` (centres unmarked) [Itraconazole]: the values for the IC50 at LdCYP51 [5] and against LdCYP5122A1 [6] were 49 ± 9 nM and 2100 ± 400 nM, respectively. Also, the EC50 in assay [7] came to 6000 ± 1100 nM. For the same molecule, the “SI (selectivity index) = IC50” value on LdCYP5122A1 [1] worked out at 43. In addition, the “Growth compared with control” value in assay [10] is on record as under 20%.
`CC(=O)N1CCN(c2ccc(OCC3COC(Cn4ccnc4)(c4ccc(Cl)cc4Cl)O3)cc2)CC1` (centres unmarked) [Ketoconazole] came in with an IC50 against LdCYP5122A1 [6] of 420 ± 50 nM. Further, the EC50 in [7] amounted to 22000 ± 6000 nM. Further, the “SI (selectivity index) = IC50” value at LdCYP5122A1 [1] was determined as 8.7. Moreover, the “Growth compared with control” value in assay [10] is under 20%.
Consider `CCCCCCCCCCCCCCCCOP(=O)([O-])OCC[N+](C)(C)C` [Miltefosine], for which the IC50 against LdCYP51 [5] worked out at 12000 ± 1000 nM; against LdCYP5122A1 [6] it was 43000 ± 1000 nM. On LdCYP5122A1 [1], the “SI (selectivity index) = IC50” value stood at 3.5. In assay [3], the “IC50 vs. intracellular amastigotes” value is recorded as 2.7^e μM.
As to `NC[C@@H]1O[C@H](O[C@H]2[C@@H](O)[C@H](O[C@@H]3[C@@H](O)[C@H](N)C[C@H](N)[C@H]3O[C@H]3O[C@H](CO)[C@@H](O)[C@H](O)[C@H]3N)O[C@@H]2CO)[C@H](N)[C@@H](O)[C@@H]1O` [Paromomycin], the “IC50 vs. intracellular amastigotes” value in assay [3] is >50^e μM.
Turning to `CC[C@@H]([C@H](C)O)n1ncn(-c2ccc(N3CCN(c4ccc(OC[C@@H]5CO[C@@](Cn6cncn6)(c6ccc(F)cc6F)C5)cc4)CC3)cc2)c1=O` [Posaconazole], the EC50 in assay [11] (read-out: Concentration sufficient to reach EC50) is 100 nM; in [11] (read-out: EC50, promastigote growth), about 25000 nM. Moreover, the “Effect on intracellular L. donovani parasites” value in assay [12] is listed as “more effective than fluconazole”. In addition, at L. donovani CYP5122A1, the “Binding mode with CYP5122A1 (difference binding spectrum)” value is given as “type II-like binding”. Besides, the “Concentration needed to inhibit growth further” value in assay [2] (Ld1S WT, bi-phasic response) was “more than 12 μM”. The “Leishmanicidal vs. leishmanistatic effect” value in [13] was “leishmanistatic effect”. Besides, the “Binding mode with CYP51 (difference binding spectrum)” value at L. donovani CYP51 is “type II binding”.
Regarding `Clc1ccc(C(Cn2ccnc2)OCc2ccsc2Cl)c(Cl)c1` (centres unmarked) [Tioconazole], the half-maximal inhibitory concentration (IC50) against LdCYP51 [5] is 54 ± 8 nM; against LdCYP5122A1 [6], 1100 ± 200 nM. Also, the results for the EC50 in assay [7] and in [8] were 9500 ± 600 nM and 4000 ± 200 nM, respectively. Besides, the “SI (selectivity index) = IC50” value at LdCYP5122A1 [1] stood at 20.
With `C[C@@H](c1ncncc1F)[C@](O)(Cn1cncn1)c1ccc(F)cc1F` [Voriconazole], the half-inhibitory concentration (IC50) at LdCYP51 [5] amounted to 85 ± 17 nM. At LdCYP5122A1 [6], the IC50 was over 100000 nM and the inhibition at 100 µM is under 28%. Besides, the “Inhibition of intracellular parasites” value in [9] was under 50%. For the same molecule, in assay [7], the EC50 is over 100000 nM. On L. donovani CYP5122A1, the “Binding mode with CYP5122A1 (difference binding spectrum)” value is “no specific responses”. The “SI (selectivity index) = IC50” value at LdCYP5122A1 [1] is recorded as over 1176. The “Selectivity for CYP51 over CYP5122A1” value at LdCYP51 [4] is listed as over 1176 fold. For the same molecule, in [14], the “4,14-Dimethylzymosterol level normalized to DMSO-treated parasites” value stood at 17 ± 2, the “4CH2OH-LS level normalized to DMSO-treated parasites” value is listed as 0.83 ± 0.09, the “5-Dehydroepisterol level normalized to DMSO-treated parasites” value is listed as 0.078 ± 0.043 and the “7-Dehydrodesmosterol level normalized to DMSO-treated parasites” value is recorded as 0^d,**. In assay [14], the “14-Methylfecosterol level normalized to DMSO-treated parasites” value is listed as “Accumulated^a,***”, the “14-Methylzymosterol level normalized to DMSO-treated parasites” value came out at 8.0 ± 1.0, the “Cholesterol (exogenous) level normalized to DMSO-treated parasites” value was found to be 0.88 ± 0.07 and the “Ergosta-5,7-dienol level normalized to DMSO-treated parasites” value came out at 0.39 ± 0.11. Moreover, in [14], the “Ergostatetraenol level normalized to DMSO-treated parasites” value came to 0.086 ± 0.027, the “Ergosterol level normalized to DMSO-treated parasites” value was 0.30 ± 0.08, the “FF-MAS level normalized to DMSO-treated parasites” value is listed as “Not detected” and the “Lanosterol level normalized to DMSO-treated parasites” value was found to be 1.6 ± 0.2. Moreover, the “T-MAS level normalized to DMSO-treated parasites” value in assay [14] is listed as “Not detected”. For the same molecule, the “Zymosterol level normalized to DMSO-treated parasites” value in assay [14] (not separated from cholesta-7,24-dienol) is on record as 0.067 ± 0.034. The “4-Methylzymosterol level normalized to DMSO-treated parasites” value in assay [14] (not separated from episterol and fecosterol) came to 0.18 ± 0.06. The “EC50, elimination of intracellular amastigotes of L. infantum” value in assay [8] was “failed”. The “Binding mode with CYP51 (difference binding spectrum)” value on L. donovani CYP51 was “type II binding”.

Usually IC50 stands for the point on the concentration scale where inhibition reaches its midpoint. What is called inhibition is the drop in the measured response relative to a control, in per cent.
